Results published in publication PMC10762035, “Molecular basis of human trace amine-associated receptor 1 activation” (Nature Communications, 2024).
Where a chain is given by its changes, count along the chain named. Where “and” joins values, the source holds several entries; their conditions need not be identical. Equal entries are not always repeated. Where two headings read alike, the source gives them in different places.

Tests used:
Type in all cases: cell-based
hTA1 C88S = biological target: T1, hTA1 C88S (Homo sapiens, UniProt Q96RJ0, C88S); assay: GloSensor cAMP accumulation assay, C88S mutant; conditions: C88S
T1 construct: expressed in transfected cells; host or cells: HEK293T
T1 sequence (Q96RJ0 1-339 C88S): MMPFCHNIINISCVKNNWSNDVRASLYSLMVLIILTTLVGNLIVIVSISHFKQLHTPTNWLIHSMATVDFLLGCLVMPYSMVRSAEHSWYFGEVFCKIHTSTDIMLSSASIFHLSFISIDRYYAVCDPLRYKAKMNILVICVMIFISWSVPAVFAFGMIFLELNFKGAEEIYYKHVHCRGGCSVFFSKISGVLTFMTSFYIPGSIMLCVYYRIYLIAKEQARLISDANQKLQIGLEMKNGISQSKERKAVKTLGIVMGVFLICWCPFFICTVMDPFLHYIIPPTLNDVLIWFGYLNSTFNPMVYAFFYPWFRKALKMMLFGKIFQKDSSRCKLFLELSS

hTA1 I290Y = biological target: T2, hTA1 I290Y (Homo sapiens, UniProt Q96RJ0, I290Y); assay: GloSensor cAMP accumulation assay, I290Y mutant; conditions: for EC50 / Emax / Emax values, Mean: I290Y; for Emax: read-out: Span ± SEM (Emax normalized to β-PEA); for Emax values, Mean: β-PEA = 100; for cAMP accumulation response, normalized (concentration-response source data, single replicate values): hTA1 I290Y (N=3), log[Compound];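 as to cAMP accumulation response, normalized (concentration-response source data, single replicate values): normalized to the maximum response of β-PEA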
T2 construct: expressed in transfected cells; host or cells: HEK293T
T2 sequence (Q96RJ0 1-339 I290Y): T1 sequence (Q96RJ0 1-339 C88S) with S88C, I290Y

hTA1 T271A = biological target: T3, hTA1 T271A (Homo sapiens, UniProt Q96RJ0, T271A); assay: GloSensor cAMP accumulation assay, T271A mutant
T3 construct: expressed in transfected cells; host or cells: HEK293T
T3 sequence (Q96RJ0 1-339 T271A): T1 sequence (Q96RJ0 1-339 C88S) with S88C, T271A

[1] = n=2, read-out: Span ± SEM (Emax normalized to β-PEA)
[2] = single experiments (3 replicates each)
[3] = T271A mutant, Figure 5B, β-PEA = 100, each row one independent experiment (3 replicates)
[4] = T271A, n=2, read-out: Span ± SEM (Emax normalized to β-PEA)

| SMILES | Emax values (hTA1 C88S; Mean of fit per experiment) | Emax (hTA1 C88S; [1]) [%] | Emax (hTA1 I290Y) [%] | Emax values, Mean (hTA1 I290Y; [2]) | cAMP accumulation response, normalized (concentration-response source data, single replicate values) (hTA1 I290Y; M = -5) | cAMP accumulation response, normalized (concentration-response source data, single replicate values) (hTA1 I290Y; M = -5.522) | cAMP accumulation response, normalized (concentration-response source data, single replicate values) (hTA1 I290Y; M = -6) | cAMP accumulation response, normalized (concentration-response source data, single replicate values) (hTA1 I290Y; M = -6.522) | cAMP accumulation response, normalized (concentration-response source data, single replicate values) (hTA1 I290Y; M = -7) | cAMP accumulation response, normalized (concentration-response source data, single replicate values) (hTA1 I290Y; M = -7.522) | cAMP accumulation response, normalized (concentration-response source data, single replicate values) (hTA1 I290Y; M = -8) | cAMP accumulation response, normalized (concentration-response source data, single replicate values) (hTA1 I290Y; M = -8.522) | cAMP accumulation response, normalized (concentration-response source data, single replicate values) (hTA1 I290Y; M = -9) | cAMP accumulation response, normalized (concentration-response source data, single replicate values) (hTA1 I290Y; M = -9.522) | cAMP accumulation response, normalized (concentration-response source data, single replicate values) (hTA1 I290Y; M = -10) | cAMP accumulation response, normalized (concentration-response source data, single replicate values) (hTA1 I290Y; M = -10.522) | Emax values, Mean (hTA1 T271A; [3]) | Emax (hTA1 T271A; [4]) [%] | further results |
| --- | --- | --- | --- | --- | --- | --- | --- | --- | --- | --- | --- | --- | --- | --- | --- | --- | --- | --- | --- |
| NCCc1ccc(O)cc1 [TYR, tyramine] | 100.851 | 109 ± 8.4 | 99 ± 3.2 | 103.315 and 92.7474 and 100.92 | 70.7589 and 112.926 and 76.6069 and 77.3087 and 89.0347 and 68.1478 and 71.4902 and 86.1539 and 63.5944 | 50.1368 and 56.2927 and 58.1394 and 72.545 (2×) and 68.5142 and 46.6748 and 35.395 and 37.651 | 26.4369 and 46.4433 and 36.2862 and 39.5657 and 32.9698 and 41.0314 and 25.2433 and 19.6034 and 27.4992 | 10.4317 and 18.1265 and 13.2018 and 24.1753 and 16.4801 and 23.4424 and 9.4516 (2×) and 6.068 | 2.737 and 6.123 and 3.045 and 3.288 (2×) and 0.7233 and 1.556 and -0.7002 and 0.4278 | 0.8902 and 0.2746 and -1.88 and -4.407 and -4.773 and -3.674 and -4.0841 and -1.828 and -2.956 | -1.264 and 0.8902 and -0.6488 and -2.575 and -3.307 (2×) and -4.0841 (2×) and -5.212 | -1.264 and -0.0332 and 0.5824 and -4.407 and -3.674 and -2.956 (2×) and -4.0841 | -3.7267 and 0.8902 and -1.88 and 1.823 and 4.021 and -3.674 and -1.828 and -2.956 and -4.0841 | -3.419 and -0.6488 and -1.88 and -6.239 and -4.407 and -2.208 and -2.956 (2×) and -5.212 | -1.88 and -0.9566 and -1.572 and -6.605 and -4.407 and -2.956 (2×) and -1.828 | -1.572 (2×) and 0.5824 | 138.16 and 109.079 | 124 | Emax (hTA1 C88S; Mean of fit per experiment, read-out: Emax values): 118%; EC50 (hTA1 C88S; Mean of fit per experiment, read-out: pEC50 values (converted)): 442 nM and 317 nM; EC50 (hTA1 C88S; n=2, read-out: EC50): 375 nM; EC50 (hTA1 I290Y; read-out: EC50): 1960 nM; EC50 (hTA1 I290Y; single experiments (3 replicates each), read-out: pEC50 values, Mean (converted)): 2120 nM and 1010 nM and 3550 nM; reduction in potency vs wild type (hTA1 T271A; T271A): about 10 fold; EC50 (hTA1 T271A; T271A mutant, Figure 5B, each row one independent experiment (3 replicates), read-out: pEC50 values, Mean (converted)): 7630 nM and 3080 nM; EC50 (hTA1 T271A; T271A, n=2, read-out: EC50): 4850 nM |
| CCc1[nH]nc(C(=O)Nc2ccc([C@H]3CNCCO3)cc2)c1C [ralmitaront] | 92.8994 and 62.9388 | 77.9 ± 15 | 17.6 ± 2.61 | 14.0517 and 22.6718 and 15.9842 | 15.3564 and 19.3577 and 13.5096 and 22.3431 and 15.3808 and 18.6787 and 17.3474 and 21.8593 and 16.2195 | 12.5863 and 17.5109 and 9.201 and 20.8774 and 14.2815 and 17.213 and 8.324 and 11.7076 and 15.0915 | 6.738 and 15.972 and 11.3551 and 15.0144 and 31.5041 and 26.3739 and 8.324 and 3.812 and 11.7076 | 9.508 and 11.6629 and 4.584 and 19.0452 and 19.7781 and 16.4801 and 8.324 (2×) and 15.0915 | 5.199 and 18.1265 and 8.893 and 8.052 and 10.6171 and 15.0144 and 6.068 (2×) and 10.5796 | 5.815 and 14.7408 and 3.6603 and 6.22 and 6.586 and 4.754 and 1.556 and -0.7002 and 0.4278 | 4.584 and 6.738 and 6.43 and 5.853 and 4.388 and 1.823 and -2.956 and -1.828 and -0.7002 | -1.264 and 1.506 and 0.8902 and -4.04 and -4.407 and 4.021 and -5.212 and -4.0841 and -2.956 | -2.496 and -0.341 and -1.88 and -5.14 and -1.109 and 9.151 and -5.212 and -4.0841 and -2.956 | -3.7267 and -1.264 and -2.803 and -1.475 and -4.407 and 4.388 and -4.0841 (2×) and -2.956 | -2.188 (2×) and -0.6488 and -5.873 and -0.7424 and -6.239 and -2.956 (2×) and -1.828 | -2.496 | 56.995 | 61.1 ± 4.08 | Emax (hTA1 C88S; relative to β-PEA, read-out: Emax): 77.9%; ΔpEC50 values (each mutant value - WT average), Mean (hTA1 T271A; T271A mutant minus WT average, Figure 5B): -0.01384; Emax (hTA1 T271A; T271A mutant, Figure 5B, β-PEA = 100, each row one independent experiment (3 replicates), read-out: Emax values, Mean): 65.2% |
